In assay [1] the test system is NCI-H358. Put plainly: combination cScore with adagrasib (Bliss gap around IC50) (%PoC); higher = stronger additive effect. In outline: (§1)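 Scores represent the average Bliss-independence gap, expected minus measured viability, in a field surrounding both monotherapy IC50s, with the top concentrations used when no IC50 was reached. Cells (NCI-H2122, NCI-H358, SW837) were seeded at 500 or 800 per well in 384-well plates, dosed in matrices at 24 h and grown for 72 h, with SW837 grown for 144 h. Viability was measured by CellTiter-Glo, normalised to vehicle wells and fitted with four-parameter curves.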

The test system of assay [2] is NCI-H2122. The assay is described as above. In outline: as §1
Assay [3] concerns SW837. The description is as above. A digest of the protocol: as §1
Assay [4] relates to NCI-H358. Description: combination cScore with sotorasib (Bliss gap around IC50) (%PoC); higher = stronger additive effect. In outline: as §1
Assay [5] concerns NCI-H2122. The description is as above. In outline: as §1
Assay [6] concerns SW837. The description is as above. In outline: as §1

SMILES strings stand for the structures.

As for `CC(=O)c1c(C)c2cnc(Nc3ccc(N4CCNCC4)cn3)nc2n(C2CCCC2)c1=O` [Palbociclib] + C=C(F)C(=O)N1CCN(c2nc(OC[C@@H]3CCCN3C)nc3c2CCN(c2cccc4cccc(Cl)c24)C3)C[C@@H]1CC#N [adagrasib], the results for the “combination cScore with adagrasib” value in the assay on NCI-H358 [1], in the assay with NCI-H2122 [2] and in the assay with SW837 [3] were 2.62, 8.54 and 19.2, respectively.

`Cc1cc(C)c(CNC(=O)c2cc(-c3ccc(N4CCNCC4)nc3)cc3c2c(C)cn3C2CCCC2)c(=O)[nH]1` + C=C(F)C(=O)N1CCN(c2nc(OC[C@@H]3CCCN3C)nc3c2CCN(c2cccc4cccc(Cl)c24)C3)C[C@@H]1CC#N [adagrasib]: the entries for the “combination cScore with adagrasib” value in the assay with NCI-H358 [1], with NCI-H2122 [2] and in the assay with SW837 [3] were 5.44, 20.3 and -0.2, respectively.

Consider `O=C(O)CNC(=O)c1c(O)c2ccccc2n(Cc2ccccc2)c1=O` [IOX2] + C=C(F)C(=O)N1CCN(c2nc(OC[C@@H]3CCCN3C)nc3c2CCN(c2cccc4cccc(Cl)c24)C3)C[C@@H]1CC#N [adagrasib], for which the entries for the “combination cScore with adagrasib” value with NCI-H358 [1], in the assay on NCI-H2122 [2] and with SW837 [3] were 0.22, 25.2 and 13.4, respectively.

Consider `O=P1(N(CCCl)CCCl)NCCCO1` (stereo unspecified) [Cyclophosphamide] + C=C(F)C(=O)N1CCN(c2nc(OC[C@@H]3CCCN3C)nc3c2CCN(c2cccc4cccc(Cl)c24)C3)C[C@@H]1CC#N [adagrasib], for which the results for the “combination cScore with adagrasib” value in the assay on NCI-H358 [1], with NCI-H2122 [2] and in the assay with SW837 [3] were -0.63, -0.77 and -0.5, respectively.

In the case of `C[C@H](Nc1ccc2c(c1)OCCn1cc(N3C(=O)OC[C@H]3C(F)F)nc1-2)C(N)=O` [GDC-0077] + C=C(F)C(=O)N1CCN(c2nc(OC[C@@H]3CCCN3C)nc3c2CCN(c2cccc4cccc(Cl)c24)C3)C[C@@H]1CC#N [adagrasib], the “combination cScore with adagrasib” value with NCI-H358 [1] is 5.51; in the assay on NCI-H2122 [2] it was 22.2; in the assay with SW837 [3] it was 5.13.

For `Cc1nc(Nc2n[nH]c3c2CN(C(=O)N[C@H](CN(C)C)c2ccccc2)C3(C)C)c2sccc2n1` + C=C(F)C(=O)N1CCN(c2nc(OC[C@@H]3CCCN3C)nc3c2CCN(c2cccc4cccc(Cl)c24)C3)C[C@@H]1CC#N [adagrasib], the “combination cScore with adagrasib” value with NCI-H358 [1] was -5.91; with NCI-H2122 [2] it was 8.47; in the assay on SW837 [3], -0.72.

For `Cc1c(Cn2c(C)nc3c(C(=O)O)cc(N4CCOCC4)cc32)cccc1C(F)(F)F` + C=C(F)C(=O)N1CCN(c2nc(OC[C@@H]3CCCN3C)nc3c2CCN(c2cccc4cccc(Cl)c24)C3)C[C@@H]1CC#N [adagrasib], the entries for the “combination cScore with adagrasib” value in the assay on NCI-H358 [1], with NCI-H2122 [2] and in the assay with SW837 [3] were -4.04, 8.98 and -1.49, respectively.

Regarding `C#Cc1cccc(Nc2ncnc3cc(OCCOC)c(OCCOC)cc23)c1` [Erlotinib] + C=C(F)C(=O)N1CCN(c2nc(OC[C@@H]3CCCN3C)nc3c2CCN(c2cccc4cccc(Cl)c24)C3)C[C@@H]1CC#N [adagrasib], the “combination cScore with adagrasib” value in the assay on NCI-H358 [1] was 10; in the assay on NCI-H2122 [2] it was 14.9; with SW837 [3], 19.4.

As to `C[C@H](NC(=O)c1c(N)nn2cccnc12)c1cc2cccc(C#Cc3cnn(C)c3)c2c(=O)n1-c1ccccc1` [IPI-549] + C=C(F)C(=O)N1CCN(c2nc(OC[C@@H]3CCCN3C)nc3c2CCN(c2cccc4cccc(Cl)c24)C3)C[C@@H]1CC#N [adagrasib], the “combination cScore with adagrasib” value with NCI-H358 [1] was -0.57; with NCI-H2122 [2] it was 13; in the assay with SW837 [3] it was 5.62.

For `CC(C)C[C@H](NC(=O)[C@H](Cc1ccccc1)NC(=O)c1cnccn1)B(O)O` [Bortezomib] + C=C(F)C(=O)N1CCN(c2nc(OC[C@@H]3CCCN3C)nc3c2CCN(c2cccc4cccc(Cl)c24)C3)C[C@@H]1CC#N [adagrasib], the “combination cScore with adagrasib” value in the assay with NCI-H358 [1] was 0; with NCI-H2122 [2] it was 4.5; with SW837 [3], -1.68.

For the compound `COc1cc(Nc2c(C#N)cnc3cc(OCCCN4CCN(C)CC4)c(OC)cc23)c(Cl)cc1Cl` [Bosutinib] + C=C(F)C(=O)N1CCN(c2nc(OC[C@@H]3CCCN3C)nc3c2CCN(c2cccc4cccc(Cl)c24)C3)C[C@@H]1CC#N [adagrasib], the “combination cScore with adagrasib” value in the assay on NCI-H358 [1] is 1.58; in the assay on NCI-H2122 [2] it was 14.5; in the assay on SW837 [3], 6.35.

Regarding `C=CC(=O)N1CCC[C@@H](n2nc(-c3ccc(Oc4ccccc4)cc3)c3c(N)ncnc32)C1` [Ibrutinib] + C=CC(=O)N1CCN(c2nc(=O)n(-c3c(C)ccnc3C(C)C)c3nc(-c4c(O)cccc4F)c(F)cc23)[C@@H](C)C1 [sotorasib], the results for the “combination cScore with sotorasib” value in the assay with NCI-H358 [4], with NCI-H2122 [5] and with SW837 [6] were 14.4, 27.9 and 13.3, respectively.

Regarding `O=C(C1CC1)N1CC[C@@H](Cn2c(-c3ccc(-c4ccc5occc5c4)cc3)nc3cnccc32)C1` + C=CC(=O)N1CCN(c2nc(=O)n(-c3c(C)ccnc3C(C)C)c3nc(-c4c(O)cccc4F)c(F)cc23)[C@@H](C)C1 [sotorasib], the “combination cScore with sotorasib” value with NCI-H358 [4] is 1; in the assay with NCI-H2122 [5], 14.4; in the assay with SW837 [6] it was 13.8.

For `CCc1c2c(nc3ccc(O)cc13)-c1cc3c(c(=O)n1C2)COC(=O)[C@]3(O)CC` [SN-38] + C=CC(=O)N1CCN(c2nc(=O)n(-c3c(C)ccnc3C(C)C)c3nc(-c4c(O)cccc4F)c(F)cc23)[C@@H](C)C1 [sotorasib], the “combination cScore with sotorasib” value with NCI-H358 [4] was determined as 2.64; with NCI-H2122 [5], 11.8; in the assay with SW837 [6], 2.7.

Regarding `COc1cccc2c1C(=O)c1c(O)c3c(c(O)c1C2=O)C[C@@](O)(C(C)=O)C[C@@H]3O[C@H]1C[C@H](N)[C@H](O)[C@H](C)O1` [Daunorubicin] + C=CC(=O)N1CCN(c2nc(=O)n(-c3c(C)ccnc3C(C)C)c3nc(-c4c(O)cccc4F)c(F)cc23)[C@@H](C)C1 [sotorasib], the figures for the “combination cScore with sotorasib” value in the assay with NCI-H358 [4], in the assay with NCI-H2122 [5] and with SW837 [6] were 2.01, 18.1 and 5.95, respectively.

For the compound `Cc1c(-c2c(-c3ccc(F)o3)sc3ncnc(O[C@H](Cc4ccccc4OCc4ccnn4CC(F)(F)F)C(=O)O)c23)ccc(OCCN2CCN(C)CC2)c1Cl` + C=CC(=O)N1CCN(c2nc(=O)n(-c3c(C)ccnc3C(C)C)c3nc(-c4c(O)cccc4F)c(F)cc23)[C@@H](C)C1 [sotorasib], the “combination cScore with sotorasib” value in the assay on NCI-H358 [4] worked out at 4.06; with NCI-H2122 [5] it was 10.4; in the assay on SW837 [6] it was 2.8.

As to `COc1cc2/c(=N/c3ccc(Br)cc3F)nc[nH]c2cc1OCC1CCN(C)CC1` [Vandetanib] + C=CC(=O)N1CCN(c2nc(=O)n(-c3c(C)ccnc3C(C)C)c3nc(-c4c(O)cccc4F)c(F)cc23)[C@@H](C)C1 [sotorasib], the “combination cScore with sotorasib” value came out at 7.76 in the assay with NCI-H358 [4], 28.4 with NCI-H2122 [5] and 22.6 in the assay on SW837 [6].

For the compound `Oc1nc(-c2ccc(C(F)(F)F)cc2)nc2c1CSCC2` [XAV939] + C=CC(=O)N1CCN(c2nc(=O)n(-c3c(C)ccnc3C(C)C)c3nc(-c4c(O)cccc4F)c(F)cc23)[C@@H](C)C1 [sotorasib], the “combination cScore with sotorasib” value was found to be 7.36 in the assay with NCI-H358 [4], 14.2 in the assay on NCI-H2122 [5] and 7.47 with SW837 [6].

Turning to `Cc1nc(-c2cn3c(n2)-c2ccc(-c4cnn(C(C)(C)C(N)=O)c4)cc2OCC3)n(C(C)C)n1` [Taselisib] + C=CC(=O)N1CCN(c2nc(=O)n(-c3c(C)ccnc3C(C)C)c3nc(-c4c(O)cccc4F)c(F)cc23)[C@@H](C)C1 [sotorasib], the “combination cScore with sotorasib” value was 7.14 with NCI-H358 [4], 25.3 in the assay on NCI-H2122 [5] and 32.8 in the assay with SW837 [6].

With `Cc1c(Cn2c(C)nc3c(C(=O)O)cc(N4CCOCC4)cc32)cccc1C(F)(F)F` + C=CC(=O)N1CCN(c2nc(=O)n(-c3c(C)ccnc3C(C)C)c3nc(-c4c(O)cccc4F)c(F)cc23)[C@@H](C)C1 [sotorasib], the figures for the “combination cScore with sotorasib” value in the assay with NCI-H358 [4], with NCI-H2122 [5] and with SW837 [6] were -2.39, 5.26 and 9.96, respectively.

For `Cc1cc(C)c(CNC(=O)c2cc(-c3ccc(N4CCNCC4)nc3)cc3c2c(C)cn3C2CCCC2)c(=O)[nH]1` + C=CC(=O)N1CCN(c2nc(=O)n(-c3c(C)ccnc3C(C)C)c3nc(-c4c(O)cccc4F)c(F)cc23)[C@@H](C)C1 [sotorasib], the “combination cScore with sotorasib” value with NCI-H358 [4] was determined as 2.26; with NCI-H2122 [5], 10.7; in the assay with SW837 [6], 1.67.

`Cc1nc(NC(=O)N2CCC[C@H]2C(N)=O)sc1-c1ccnc(C(C)(C)C(F)(F)F)c1` [BYL-719] + C=CC(=O)N1CCN(c2nc(=O)n(-c3c(C)ccnc3C(C)C)c3nc(-c4c(O)cccc4F)c(F)cc23)[C@@H](C)C1 [sotorasib]: the “combination cScore with sotorasib” value in the assay with NCI-H358 [4] is 5.72; in the assay with NCI-H2122 [5] it was 24.8; with SW837 [6], 24.4.
